Data as given in ChEMBL document CHEMBL5241112, “Insights into the recent progress in the medicinal chemistry of pyranopyrimidine analogs” (RSC Med Chem, 2022).
In brackets after ≈: the same amount, converted by molar mass. Blank lines part the entries; values can stand above or below the compound they belong to.

Legend:
Staphylococcus aureus [1] = assay: Antimicrobial activity against Staphylococcus aureus assessed as diameter of inhibition zone at 1.2 mg/ml incubated for 12 hrs by agar disk diffusion method; format: functional; details: read-out: DIZ
Staphylococcus aureus [2] = assay: Antimicrobial activity against Staphylococcus aureus assessed as diameter of inhibition zone at 2.5 mg/ml incubated for 12 hrs by agar disk diffusion method; format: functional; details: read-out: DIZ
Staphylococcus aureus [3] = assay: Antimicrobial activity against Staphylococcus aureus assessed as diameter of inhibition zone at 5.0 mg/ml incubated for 12 hrs by agar disk diffusion method; format: functional; details: read-out: DIZ
Escherichia coli [4] = assay: Antimicrobial activity against Escherichia coli assessed as diameter of inhibition zone at 2.5 mg/ml incubated for 12 hrs by agar disk diffusion method; format: functional; details: read-out: DIZ
Escherichia coli [5] = assay: Antimicrobial activity against Escherichia coli assessed as diameter of inhibition zone at 5.0 mg/ml incubated for 12 hrs by agar disk diffusion method; format: functional; details: read-out: DIZ
Pseudomonas aeruginosa [6] = assay: Antimicrobial activity against Pseudomonas aeruginosa assessed as diameter of inhibition zone at 1.2 mg/ml incubated for 12 hrs by agar disk diffusion method; format: functional; details: read-out: DIZ
Pseudomonas aeruginosa [7] = assay: Antimicrobial activity against Pseudomonas aeruginosa assessed as diameter of inhibition zone at 2.5 mg/ml incubated for 12 hrs by agar disk diffusion method; format: functional; details: read-out: DIZ
Pseudomonas aeruginosa [8] = assay: Antimicrobial activity against Pseudomonas aeruginosa assessed as diameter of inhibition zone at 5.0 mg/ml incubated for 12 hrs by agar disk diffusion method; format: functional; details: read-out: DIZ
Bacillus cereus [9] = assay: Antimicrobial activity against Bacillus cereus assessed as diameter of inhibition zone at 1.2 mg/ml incubated for 12 hrs by agar disk diffusion method; format: functional; details: read-out: DIZ
Bacillus cereus [10] = assay: Antimicrobial activity against Bacillus cereus assessed as diameter of inhibition zone at 2.5 mg/ml incubated for 12 hrs by agar disk diffusion method; format: functional; details: read-out: DIZ
Bacillus cereus [11] = assay: Antimicrobial activity against Bacillus cereus assessed as diameter of inhibition zone at 5.0 mg/ml incubated for 12 hrs by agar disk diffusion method; format: functional; details: read-out: DIZ
[12] = Antioxidant activity assessed as DPPH radical scavenging activity at 75 ug/ml incubated for 30 mins by spectrophotometric analysis; format: functional; details: dose 75.0 µg/ml
Staphylococcus aureus [13] = assay: Antibacterial activity against Staphylococcus aureus ATCC6538-P assessed as diameter of inhibition zone at 50 mg/ml incubated for 24 hrs by paper disk diffusion method; format: functional; details: read-out: DIZ
Escherichia coli [14] = assay: Antibacterial activity against Escherichia coli ATCC 25922 assessed as diameter of inhibition zone at 50 mg/ml incubated for 24 hrs by paper disk diffusion method; format: functional; details: read-out: DIZ
Aspergillus fumigatus = assay: microbe, parasite or virus in culture; format: functional; details: ATCC204305, dose 50 mg/ml, time 24 hrs, read-out: DIZ
[15] = Antioxidant activity assessed as DPPH radical scavenging activity at 12 ug incubated for 30 mins by spectrophotometric analysis; format: functional; details: dose 12.0 µg
[16] = Antioxidant activity assessed as DPPH radical scavenging activity at 100 ug/ml incubated for 30 mins by spectrophotometric analysis; format: functional; details: dose 100.0 µg/ml
Staphylococcus aureus [17] = assay: Antibacterial activity against Staphylococcus aureus NCIM 2654 assessed as diameter of inhibition zone incubated for 24 hrs by agar well diffusion method; format: functional
Escherichia coli [18] = assay: Antibacterial activity against Escherichia coli NCIM 2066 assessed as diameter of inhibition zone incubated for 24 hrs by agar well diffusion method; format: functional
Candida albicans [19] = assay: Antifungal activity against Candida albicans assessed as diameter of inhibition zone incubated for 48 hrs by agar well diffusion method; format: functional
Candida albicans [20] = assay: Antifungal activity against Candida albicans assessed as diameter of inhibition zone at 100 ug/ml by agar disc diffusion method; format: functional; details: read-out: DIZ
Aspergillus flavus [21] = assay: Antifungal activity against Aspergillus flavus assessed as diameter of inhibition zone at 100 ug/ml by agar disc diffusion method; format: functional; details: read-out: DIZ
Escherichia coli [22] = assay: Antibacterial activity against Escherichia coli assessed as inhibition of bacterial growth; format: functional
Pseudomonas aeruginosa [23] = assay: Antibacterial activity against Pseudomonas aeruginosa assessed as inhibition of bacterial growth; format: functional
Staphylococcus aureus [24] = assay: Antibacterial activity against Staphylococcus aureus assessed as inhibition of bacterial growth; format: functional
Candida albicans [25] = assay: Antifungal activity against Candida albicans assessed as inhibition of fungal growth; format: functional
Aspergillus niger = assay: Antifungal activity against Aspergillus niger assessed as inhibition of fungal growth; format: functional
Aspergillus flavus [26] = assay: Antifungal activity against Aspergillus flavus assessed as inhibition of fungal growth; format: functional
Escherichia coli [27] = assay: Antibacterial activity against Escherichia coli MTCC 723 assessed as diameter of inhibition zone at 0.1 mg/ml incubated for 24 hrs by agar well diffusion method; format: functional; details: read-out: DIZ
Pseudomonas aeruginosa [28] = assay: Antibacterial activity against Pseudomonas aeruginosa MTCC 741 assessed as diameter of inhibition zone at 0.1 mg/ml incubated for 24 hrs by agar well diffusion method; format: functional; details: read-out: DIZ
Klebsiella pneumoniae = assay: Antibacterial activity against Klebsiella pneumoniae MTCC 109 assessed as diameter of inhibition zone at 0.1 mg/ml incubated for 24 hrs by agar well diffusion method; format: functional; details: read-out: DIZ
Alpha-glucosidase = Alpha-glucosidase (Saccharomyces cerevisiae S288c, UniProt P53341+P38158+P07265); assay: Inhibition of Saccharomyces cerevisiae alpha-glucosidase preincubated for 5 mins followed by PNP-GLUC substrate addition and measured after 20 mins by spectroscopic analysis; format: protein assay
Albumin = Albumin (Bos taurus, UniProt P02769); assay: […] bovine serum albumin denaturation incubated for 23 mins by UV-Visible spectrophotometry
Sequence of Albumin (P02769 whole entry): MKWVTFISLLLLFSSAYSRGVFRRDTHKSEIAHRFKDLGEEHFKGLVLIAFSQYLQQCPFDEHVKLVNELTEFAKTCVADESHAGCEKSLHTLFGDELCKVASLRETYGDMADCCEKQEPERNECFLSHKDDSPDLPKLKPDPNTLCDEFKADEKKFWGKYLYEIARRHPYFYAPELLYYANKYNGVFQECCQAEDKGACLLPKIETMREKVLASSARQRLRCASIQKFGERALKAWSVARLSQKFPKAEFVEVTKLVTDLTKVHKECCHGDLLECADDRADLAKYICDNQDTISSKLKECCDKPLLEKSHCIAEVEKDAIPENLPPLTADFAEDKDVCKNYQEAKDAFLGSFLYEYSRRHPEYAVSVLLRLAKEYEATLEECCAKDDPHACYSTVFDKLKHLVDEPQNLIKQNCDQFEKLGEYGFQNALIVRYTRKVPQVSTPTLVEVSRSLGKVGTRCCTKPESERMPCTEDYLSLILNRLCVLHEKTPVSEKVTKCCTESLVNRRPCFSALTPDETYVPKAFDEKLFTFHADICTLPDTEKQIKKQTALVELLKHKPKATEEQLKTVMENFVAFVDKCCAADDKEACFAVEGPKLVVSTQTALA

[29] = Inhibition of porcine pancreatic alpha-amylase preincubated for 10 mins followed by substrate starch addition and measured after 10 mins by colorimetric analysis; design: species or system Sus scrofa
Staphylococcus aureus [30] = assay: Antibacterial activity against Staphylococcus aureus MTCC 87 assessed as diameter of inhibition zone at 0.1 mg/ml incubated for 24 hrs by agar well diffusion method; format: functional; details: read-out: DIZ

SMILES: N#CC1=C(N)Oc2[nH]c(=O)[nH]c(=O)c2C1c1ccncc1 (stereo not drawn)
zone of inhibition at 1200 µg/mL (Staphylococcus aureus [1]): 8 mm
zone of inhibition at 2500 µg/mL (Staphylococcus aureus [2]): 10 mm
zone of inhibition at 5000 µg/mL (Staphylococcus aureus [3]): 14 mm
zone of inhibition at 2500 µg/mL (Escherichia coli [4]): 13 mm
zone of inhibition at 5000 µg/mL (Escherichia coli [5]): 17 mm
zone of inhibition at 1200 µg/mL (Pseudomonas aeruginosa [6]): 12 mm
zone of inhibition at 2500 µg/mL (Pseudomonas aeruginosa [7]): 16 mm
zone of inhibition at 5000 µg/mL (Pseudomonas aeruginosa [8]): 19 mm
zone of inhibition at 1200 µg/mL (Bacillus cereus [9]): 10 mm
zone of inhibition at 2500 µg/mL (Bacillus cereus [10]): 15 mm
zone of inhibition at 5000 µg/mL (Bacillus cereus [11]): 19 mm

SMILES: N=c1c2c(ncn1N)Oc1[nH]nc(-c3ccccc3)c1C2c1coc2ccccc2c1=O (stereo not drawn)
Activity [12]: 85.5%

SMILES: O=c1[nH]cnc2c1C(c1ccc(Cl)cc1)C=C(c1cc3ccccc3oc1=O)O2 (stereo not drawn)
zone of inhibition at 50000 µg/mL (Staphylococcus aureus [13]): 10 mm
zone of inhibition at 50000 µg/mL (Escherichia coli [14]): 10 mm
zone of inhibition at 50000 µg/mL (Aspergillus fumigatus): 10 mm

SMILES: O=C1O[C@H]([C@@H](O)CO)C(O)=C1O
Activity [15]: 94.6%
Activity [12]: 89.4%
Activity [16]: 97.6%

SMILES: Cc1ccc(C2c3c(C)n[nH]c3Oc3[nH]c(=O)[nH]c(=O)c32)cc1 (stereo not drawn)
diameter of the inhibition zone (DIZ) (Staphylococcus aureus [17]): 25 mm
diameter of the inhibition zone (DIZ) (Escherichia coli [18]): 23 mm
diameter of the inhibition zone (DIZ) (Candida albicans [19]): 27 mm
Activity [15]: 71.9%

SMILES: O=c1c(C2c3c(O)ncnc3Oc3[nH]nc(-c4ccccc4)c32)coc2ccccc12 (stereo not drawn)
Activity [16]: 87.5%

SMILES: CC(=O)N1CCN(c2ccc(OCC3COC(Cn4ccnc4)(c4ccc(Cl)cc4Cl)O3)cc2)CC1 (stereo not drawn) [KETOCONAZOLE]
zone of inhibition at 100 µg/mL (Candida albicans [20]): 20.5 mm
zone of inhibition at 100 µg/mL (Aspergillus flavus [21]): 18.5 mm

SMILES: COc1ccc(C2c3c(C)n[nH]c3Oc3[nH]c(=O)[nH]c(=O)c32)cc1 (stereo not drawn)
diameter of the inhibition zone (DIZ) (Staphylococcus aureus [17]): 27 mm
diameter of the inhibition zone (DIZ) (Escherichia coli [18]): 19 mm
diameter of the inhibition zone (DIZ) (Candida albicans [19]): 27 mm

MIC (Escherichia coli [22]): 75 µg/mL (≈ 251 µM)
MIC (Pseudomonas aeruginosa [23]): 25 µg/mL (≈ 83.8 µM)
MIC (Staphylococcus aureus [24]): 25 µg/mL (≈ 83.8 µM)
MIC (Candida albicans [25]): 125 µg/mL (≈ 419 µM)
MIC (Aspergillus niger): 162 µg/mL (≈ 545 µM)
MIC (Aspergillus flavus [26]): 150 µg/mL (≈ 503 µM)
SMILES: N#CC1=C(N)Oc2[nH]c(=O)[nH]c(=O)c2C1c1ccccc1O (stereo not drawn)

IC50 (Alpha-glucosidase): 6197 µM
IC50 (Albumin): 26 µM
IC50 [29]: 20.1 µM
SMILES: O=C(C1=C(c2ccccc2O)Oc2[nH]c(=S)[nH]c(=O)c2C1c1ccccc1O)N1CCCCC1 (stereo not drawn)
zone of inhibition at 100 µg/mL (Escherichia coli [27]): 12.2 mm
zone of inhibition at 100 µg/mL (Pseudomonas aeruginosa [28]): 10.1 mm
zone of inhibition at 100 µg/mL (Klebsiella pneumoniae): 11.6 mm

IC50 (Alpha-glucosidase): 6855 µM
IC50 (Albumin): 23.1 µM
IC50 [29]: 24.7 µM
SMILES: O=C(C1=C(c2ccccc2O)Oc2[nH]c(=S)[nH]c(=O)c2C1c1ccc(Br)cc1)N1CCCCC1 (stereo not drawn)
zone of inhibition at 100 µg/mL (Staphylococcus aureus [30]): 9.1 mm

SMILES: Cc1n[nH]c2c1C(c1ccccc1)c1c([nH]c(=O)[nH]c1=O)O2 (stereo not drawn)
diameter of the inhibition zone (DIZ) (Staphylococcus aureus [17]): 18 mm
diameter of the inhibition zone (DIZ) (Escherichia coli [18]): 14 mm
diameter of the inhibition zone (DIZ) (Candida albicans [19]): 23 mm
Activity [15]: 65.8%
